Type in all cases: functional
In test [1] the test system is NCI-H1373. The test is described as follows: Cytotoxicity against human NCI-H1373 cells harboring KRAS G12C mutant assessed as reduction in cell viability measured after 72 hrs by CellTiter-Glo luciferase-based ATP detection assay. The settings on record: NCI-H1373, 72 h.
Test [2] has as its system NCI-H1792. The test is described as follows: Cytotoxicity against human NCI-H1792 cells harboring KRAS G12C mutant assessed as reduction in cell viability measured after 72 hrs by CellTiter-Glo luciferase-based ATP detection assay. Particulars: NCI-H1792, 72 h.
Test [3] relates to NCI-H358. The test is described as follows: Cytotoxicity against human NCI-H358 cells harboring KRAS G12C mutant assessed as reduction in cell viability measured after 72 hrs by CellTiter-Glo luciferase-based ATP detection assay. The settings on record: NCI-H358, 72 h. (In general: Cellular ATP, detected with luciferase, serves as a proxy for viable cell number.)
The test system of test [4] is NCI-H2122. The test is described as follows: Cytotoxicity against human NCI-H2122 cells harboring KRAS G12C mutant assessed as reduction in cell viability measured after 72 hrs by CellTiter-Glo luciferase-based ATP detection assay. The settings on record: NCI-H2122, 72 h.
The test system of test [5] is NCI-H23. The test is described as follows: Cytotoxicity against human NCI-H23 cells harboring KRAS G12C mutant assessed as reduction in cell viability measured after 72 hrs by CellTiter-Glo luciferase-based ATP detection assay. Particulars: NCI-H23, 72 h.
The subject of test [6] is NCI-H1373. The test is described as follows: Cytotoxicity against human NCI-H1373 cells harboring KRASG12C mutant assessed as reduction in cell viability measured after 72 hrs in presence of compound 1 by CellTiter-Glo luciferase-based ATP detection assay. The settings on record: NCI-H1373, 72 h.
The test system of test [7] is NCI-H23. The test is described as follows: Cytotoxicity against human NCI-H23 cells harboring KRASG12C mutant assessed as reduction in cell viability measured after 72 hrs in presence of compound 1 by CellTiter-Glo luciferase-based ATP detection assay. Particulars: NCI-H23, 72 h.
The test system of test [8] is NCI-H2122. The test is described as follows: Cytotoxicity against human NCI-H2122 cells harboring KRASG12C mutant assessed as reduction in cell viability measured after 72 hrs in presence of compound 1 by CellTiter-Glo luciferase-based ATP detection assay. The settings on record: NCI-H2122, 72 h.
The subject of test [9] is NCI-H358. The test is described as follows: Cytotoxicity against human NCI-H358 cells harboring KRASG12C mutant assessed as reduction in cell viability measured after 72 hrs in presence of compound 1 by CellTiter-Glo luciferase-based ATP detection assay. Particulars: NCI-H358, 72 h.
Test [10] deals with NCI-H1792. The test is described as follows: Cytotoxicity against human NCI-H1792 cells harboring KRASG12C mutant assessed as reduction in cell viability measured after 72 hrs in presence of compound 1 by CellTiter-Glo luciferase-based ATP detection assay. Particulars: NCI-H1792, 72 h.

SMILES strings stand for the structures.

In general, IC50 refers to the midpoint of a concentration-inhibition curve. Consider `C[C@H]1CNC(=O)c2cnn3ccc(nc23)N[C@H](C)c2cc(F)ccc2O1` [REPOTRECTINIB], for which the IC50 is 5 µM in the test with NCI-H1373 [1]; 1900 nM in the test on NCI-H1792 [2]; 2500 nM with NCI-H358 [3]; 1940 nM in the test with NCI-H2122 [4]; 4.06 µM with NCI-H23 [5].

As to `C=CC(=O)N1CCN(c2nc(=O)n(-c3c(C)ccnc3C(C)C)c3nc(-c4c(O)cccc4F)c(F)cc23)[C@@H](C)C1` [SOTORASIB], the IC50 was 356 nM in the test on NCI-H1373 [6]; > 10 µM in the test on NCI-H1373 [1]; 1500 nM in the test on NCI-H23 [7]; > 10000 nM in the test on NCI-H1792 [2]; 213 nM in the test with NCI-H358 [3]; > 10 µM in the test with NCI-H23 [5]. Moreover, the half-maximal inhibitory concentration (IC50) worked out at 90.5 nM with NCI-H2122 [8], 3 nM in the test with NCI-H358 [9] and 3000 nM in the test with NCI-H1792 [10].

Source of the values: ChEMBL document CHEMBL4825770, “KRAS Mutant Combination Therapy for the Effective Treatment of Cancer” (ACS Med Chem Lett, 2021).
